Source: EP1096933B1, “USE OF AN INHIBITOR OF CYTOCHROME P450 OPTIONALLY COMBINED WITH AN ANTIFUNGAL AGENT FOR TREATING MYCOSES” (priority 1998, dated 2000)
Where two headings read alike, the source gives them in different places.

Experiments:
Assay in all cases: growth of strains streaked on Sabouraud agar containing the products
Assay type in all cases: cell-based
[1] = system: Trichophyton mentagrophytes; conditions: Tric.Mentagophytes; for activity at 20 µg/mL: read-out: % DE CROISSANCE; for inhibition at 2 µg/mL / inhibition at 10 µg/mL / inhibition at 20 µg/mL / inhibition at 50 µg/mL: read-out: inhibition de la croissance
Experimental: (§1) Ces molécules ont été incorporées dans un milieu gélosé dit de Sabouraud (peptone 10g/l, glucose 10 g/l, gomme agar 15 g/l).
(§2) Des souches de diverses espèces de champignons ont été ensemencées par stries par la méthode de Stires.
(§3) Le pourcentage de croissance a été mesuré au cours du temps, pour des périodes allant jusqu'à 21 jours, pour certaines des souches testées.
(§4) Les quantités de pipéronyl butoxyde, et de cyclopyroxolamine utilisées sont identiques et sont de 10 ou 20 µg/ml dans le cas de l'association entre ces deux composés.
(§5) Dans le cas de l'association entre le pipéronyl butoxyde et l'éconazole, elles sont respectivement de 10 ou 20 µg/ml de pipéronyl butoxyde et de 1 µg/ml d'éconazole.
(§6) Des souches appartenant aux espèces suivantes ont été testées: Microsporum canis, Trichophyton rubrum, Trichophyton interdigitale, Trichophyton mentagrophytes, Microsporum persicolor, Epidermophyton floccosum, Trichophyton violaceum et Trichophyton soudanense.
(§7) L'activité du pipéronyl butoxyde seul a été testée à diverses concentrations, comme indiqué dans le tableau 1 sur le milieu de Sabouraud, dépourvu de tout autre fongicide.

Microsporum canis = conditions: for activity at 20 µg/mL: read-out: % DE CROISSANCE; for inhibition at 2 µg/mL / inhibition at 10 µg/mL / inhibition at 20 µg/mL / inhibition at 50 µg/mL: Micro. Canis, read-out: inhibition de la croissance
Experimental: as §1, §2, §3, §4, §5, §6, §7

[2] = system: Trichophyton interdigitale; conditions: Tric.Interdigitale; for activity at 20 µg/mL: read-out: % DE CROISSANCE; for inhibition at 2 µg/mL / inhibition at 10 µg/mL / inhibition at 20 µg/mL / inhibition at 50 µg/mL: read-out: inhibition de la croissance
Experimental: as §1, §2, §3, §4, §5, §6, §7

Microsporum persicolor = conditions: Nannizzia persicolor, Micro.Persicolor; for activity at 10 µg/mL: 10µg/ml each product, read-out: % DE CROISSANCE; for inhibition at 2 µg/mL / inhibition at 10 µg/mL / inhibition at 20 µg/mL / inhibition at 50 µg/mL: read-out: inhibition de la croissance
Experimental: as §1, §2, §3, §4, §5, §6, §7

Trichophyton violaceum = conditions: Tric.Violaceum; for activity at 10 µg/mL: read-out: % DE CROISSANCE; for inhibition at 2 µg/mL / inhibition at 10 µg/mL / inhibition at 20 µg/mL / inhibition at 50 µg/mL: read-out: inhibition de la croissance
Experimental: as §1, §2, §3, §4, §5, §6, §7

Trichophyton soudanense = conditions: Tric.Soudanese; for activity at 10 µg/mL: read-out: % DE CROISSANCE; for inhibition at 2 µg/mL / inhibition at 10 µg/mL / inhibition at 20 µg/mL / inhibition at 50 µg/mL: read-out: inhibition de la croissance
Experimental: as §1, §2, §3, §4, §5, §6, §7

Epidermophyton floccosum = conditions: Epid.Flocosum; for activity at 10 µg/mL: read-out: % DE CROISSANCE; for inhibition at 2 µg/mL / inhibition at 10 µg/mL / inhibition at 20 µg/mL / inhibition at 50 µg/mL: read-out: inhibition de la croissance
Experimental: as §1, §2, §3, §4, §5, §6, §7

[3] = 144 h, J6, 20µg/ml each product
[4] = 240 h, J10, 20µg/ml each product
[5] = 336 h, J14, 20µg/ml each product
[6] = 144 h, J6, 10µg/ml each product
[7] = 240 h, J10, 10µg/ml each product
[8] = 336 h, J14, 10µg/ml each product

SMILES: CCCCOCCOCCOCc1cc2c(cc1CCC)OCO2 [Piperonyl., pipéronyl butoxyde]
- activity at 20 µg/mL ([1]; 0 h, J0, 20µg/ml each product): 0%
- activity at 20 µg/mL ([1]; 96 h, J4, 20µg/ml each product): 0%
- activity at 20 µg/mL [1, 3]: 25%
- activity at 20 µg/mL [1, 4]: 60%
- activity at 20 µg/mL [1, 5]: 65%
- inhibition at 2 µg/mL ([1]; J+4, 2 µg/ml): 30%
- inhibition at 10 µg/mL ([1]; J+4, 10 µg/ml): 10%
- inhibition at 20 µg/mL ([1]; J+4, 20 µg/ml): 0%
- inhibition at 50 µg/mL ([1]; J+4, 50 µg/ml): 0%
- inhibition at 2 µg/mL ([1]; J+10, 2 µg/ml): 80%
- inhibition at 10 µg/mL ([1]; J+10, 10 µg/ml): 60%
- inhibition at 20 µg/mL ([1]; J+10, 20 µg/ml): 60%
- inhibition at 50 µg/mL ([1]; J+10, 50 µg/ml): 0%
- inhibition at 2 µg/mL ([1]; J+14, 2 µg/ml): 100%
- inhibition at 10 µg/mL ([1]; J+14, 10 µg/ml): 70%
- inhibition at 20 µg/mL ([1]; J+14, 20 µg/ml): 65%
- inhibition at 50 µg/mL ([1]; J+14, 50 µg/ml): 0%
- activity at 20 µg/mL (Microsporum canis; 0 h): 0%
- activity at 20 µg/mL (Microsporum canis; 96 h): 0%
- activity at 20 µg/mL (Microsporum canis; 144 h): 5%
- activity at 20 µg/mL (Microsporum canis; 240 h): 45%
- activity at 20 µg/mL (Microsporum canis; 336 h): 60%
- inhibition at 2 µg/mL (Microsporum canis; J+4, 2 µg/ml): 20%
- inhibition at 10 µg/mL (Microsporum canis; J+4, 10 µg/ml): 15%
- inhibition at 20 µg/mL (Microsporum canis; J+4, 20 µg/ml): 0%
- inhibition at 50 µg/mL (Microsporum canis; J+4, 50 µg/ml): 0%
- inhibition at 2 µg/mL (Microsporum canis; J+10, 2 µg/ml): 80%
- inhibition at 10 µg/mL (Microsporum canis; J+10, 10 µg/ml): 60%
- inhibition at 20 µg/mL (Microsporum canis; J+10, 20 µg/ml): 45%
- inhibition at 50 µg/mL (Microsporum canis; J+10, 50 µg/ml): 0%
- inhibition at 2 µg/mL (Microsporum canis; J+14, 2 µg/ml): 100%
- inhibition at 10 µg/mL (Microsporum canis; J+14, 10 µg/ml): 80%
- inhibition at 20 µg/mL (Microsporum canis; J+14, 20 µg/ml): 60%
- inhibition at 50 µg/mL (Microsporum canis; J+14, 50 µg/ml): 0%
- activity at 20 µg/mL ([2]; 0 h, J0, 20µg/ml each product): 0%
- activity at 20 µg/mL ([2]; 96 h, J4, 20µg/ml each product): 5%
- activity at 20 µg/mL [2, 3]: 25%
- activity at 20 µg/mL [2, 4]: 60%
- activity at 20 µg/mL [2, 5]: 70%
- inhibition at 2 µg/mL ([2]; J+4, 2 µg/ml): 30%
- inhibition at 10 µg/mL ([2]; J+4, 10 µg/ml): 15%
- inhibition at 20 µg/mL ([2]; J+4, 20 µg/ml): 5%
- inhibition at 50 µg/mL ([2]; J+4, 50 µg/ml): 0%
- inhibition at 2 µg/mL ([2]; J+10, 2 µg/ml): 80%
- inhibition at 10 µg/mL ([2]; J+10, 10 µg/ml): 70%
- inhibition at 20 µg/mL ([2]; J+10, 20 µg/ml): 60%
- inhibition at 50 µg/mL ([2]; J+10, 50 µg/ml): 0%
- inhibition at 2 µg/mL ([2]; J+14, 2 µg/ml): 100%
- inhibition at 10 µg/mL ([2]; J+14, 10 µg/ml): 80%
- inhibition at 20 µg/mL ([2]; J+14, 20 µg/ml): 70%
- inhibition at 50 µg/mL ([2]; J+14, 50 µg/ml): 0%
- activity at 10 µg/mL (Microsporum persicolor; 0 h, J0): 0%
- activity at 10 µg/mL (Microsporum persicolor; 96 h, J4): 0%
- activity at 10 µg/mL (Microsporum persicolor; 144 h, J6): 20%
- activity at 10 µg/mL (Microsporum persicolor; 240 h, J10): 40%
- activity at 10 µg/mL (Microsporum persicolor; 336 h, J14): 75%
- inhibition at 2 µg/mL (Microsporum persicolor; J+4): 20%
- inhibition at 10 µg/mL (Microsporum persicolor; J+4): 0%
- inhibition at 20 µg/mL (Microsporum persicolor; J+4): 0%
- inhibition at 50 µg/mL (Microsporum persicolor; J+4): 0%
- inhibition at 2 µg/mL (Microsporum persicolor; J+10): 85%
- inhibition at 10 µg/mL (Microsporum persicolor; J+10): 40%
- inhibition at 20 µg/mL (Microsporum persicolor; J+10): 20%
- inhibition at 50 µg/mL (Microsporum persicolor; J+10): 0%
- inhibition at 2 µg/mL (Microsporum persicolor; J+14): 100%
- inhibition at 10 µg/mL (Microsporum persicolor; J+14): 75%
- inhibition at 20 µg/mL (Microsporum persicolor; J+14): 25%
- inhibition at 50 µg/mL (Microsporum persicolor; J+14): 0%
- activity at 10 µg/mL (Trichophyton violaceum; 0 h, J0, 10µg/ml each product): 0%
- activity at 10 µg/mL (Trichophyton violaceum; 96 h, J4, 10µg/ml each product): 0%
- activity at 10 µg/mL (Trichophyton violaceum; [6]): 15%
- activity at 10 µg/mL (Trichophyton violaceum; [7]): 35%
- activity at 10 µg/mL (Trichophyton violaceum; [8]): 35%
- inhibition at 2 µg/mL (Trichophyton violaceum; J+4, 2 µg/ml): 25%
- inhibition at 10 µg/mL (Trichophyton violaceum; J+4, 10 µg/ml): 0%
- inhibition at 20 µg/mL (Trichophyton violaceum; J+4, 20 µg/ml): 0%
- inhibition at 50 µg/mL (Trichophyton violaceum; J+4, 50 µg/ml): 0%
- inhibition at 2 µg/mL (Trichophyton violaceum; J+10, 2 µg/ml): 90%
- inhibition at 10 µg/mL (Trichophyton violaceum; J+10, 10 µg/ml): 35%
- inhibition at 20 µg/mL (Trichophyton violaceum; J+10, 20 µg/ml): 15%
- inhibition at 50 µg/mL (Trichophyton violaceum; J+10, 50 µg/ml): 0%
- inhibition at 2 µg/mL (Trichophyton violaceum; J+14, 2 µg/ml): 100%
- inhibition at 10 µg/mL (Trichophyton violaceum; J+14, 10 µg/ml): 35%
- inhibition at 20 µg/mL (Trichophyton violaceum; J+14, 20 µg/ml): 25%
- inhibition at 50 µg/mL (Trichophyton violaceum; J+14, 50 µg/ml): 0%
- activity at 10 µg/mL (Trichophyton soudanense; 0 h, J0, 10µg/ml each product): 0%
- activity at 10 µg/mL (Trichophyton soudanense; 96 h, J4, 10µg/ml each product): 0%
- activity at 10 µg/mL (Trichophyton soudanense; [6]): 10%
- activity at 10 µg/mL (Trichophyton soudanense; [7]): 10%
- activity at 10 µg/mL (Trichophyton soudanense; [8]): 25%
- inhibition at 2 µg/mL (Trichophyton soudanense; J+4, 2 µg/ml): 25%
- inhibition at 10 µg/mL (Trichophyton soudanense; J+4, 10 µg/ml): 0%
- inhibition at 20 µg/mL (Trichophyton soudanense; J+4, 20 µg/ml): 0%
- inhibition at 50 µg/mL (Trichophyton soudanense; J+4, 50 µg/ml): 0%
- inhibition at 2 µg/mL (Trichophyton soudanense; J+10, 2 µg/ml): 80%
- inhibition at 10 µg/mL (Trichophyton soudanense; J+10, 10 µg/ml): 10%
- inhibition at 20 µg/mL (Trichophyton soudanense; J+10, 20 µg/ml): 0%
- inhibition at 50 µg/mL (Trichophyton soudanense; J+10, 50 µg/ml): 0%
- inhibition at 2 µg/mL (Trichophyton soudanense; J+14, 2 µg/ml): 100%
- inhibition at 10 µg/mL (Trichophyton soudanense; J+14, 10 µg/ml): 25%
- inhibition at 20 µg/mL (Trichophyton soudanense; J+14, 20 µg/ml): 0%
- inhibition at 50 µg/mL (Trichophyton soudanense; J+14, 50 µg/ml): 0%
- activity at 10 µg/mL (Epidermophyton floccosum; 0 h, J0, 10µg/ml each product): 0%
- activity at 10 µg/mL (Epidermophyton floccosum; 96 h, J4, 10µg/ml each product): 0%
- activity at 10 µg/mL (Epidermophyton floccosum; [6]): 10%
- activity at 10 µg/mL (Epidermophyton floccosum; [7]): 45%
- activity at 10 µg/mL (Epidermophyton floccosum; [8]): 70%
- inhibition at 2 µg/mL (Epidermophyton floccosum; J+4, 2 µg/ml): 15%
- inhibition at 10 µg/mL (Epidermophyton floccosum; J+4, 10 µg/ml): 0%
- inhibition at 20 µg/mL (Epidermophyton floccosum; J+4, 20 µg/ml): 0%
- inhibition at 50 µg/mL (Epidermophyton floccosum; J+4, 50 µg/ml): 0%
- inhibition at 2 µg/mL (Epidermophyton floccosum; J+10, 2 µg/ml): 90%
- inhibition at 10 µg/mL (Epidermophyton floccosum; J+10, 10 µg/ml): 45%
- inhibition at 20 µg/mL (Epidermophyton floccosum; J+10, 20 µg/ml): 25%
- inhibition at 50 µg/mL (Epidermophyton floccosum; J+10, 50 µg/ml): 0%
- inhibition at 2 µg/mL (Epidermophyton floccosum; J+14, 2 µg/ml): 100%
- inhibition at 10 µg/mL (Epidermophyton floccosum; J+14, 10 µg/ml): 70%
- inhibition at 20 µg/mL (Epidermophyton floccosum; J+14, 20 µg/ml): 30%
- inhibition at 50 µg/mL (Epidermophyton floccosum; J+14, 50 µg/ml): 0%
